{
  "source": "patent US7297700B2",
  "about": "“Bicycloheteroaryl compounds as P2X7 modulators and uses thereof” (Renovis, Inc., priority 2005, dated 2007)",
  "data": [
    {"test_system": "IL-1β release from THP-1 cells", "test": "IL-1β Release Assay (Alternate Method), THP-1 cells", "type": "cell-based, human", "conditions": "at 0.3 μM; THP-1 cells", "how_it_was_run": "(§1)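 IL-1β release, measured by ELISA, follows 45 min BzATP (250 uM final) stimulation of THP-1 cells given 30 min compound pretreatment. Cells were first primed 16 h with LPS and IFN-γ (100 ng/mL each), then 2 h with fresh LPS; inhibition expressed in percent after background correction.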", "values": [
      {"smiles": "O=C(NCC12CC3CC(CC(C3)C1)C2)c1ncnc2c1CCN(Cc1ccc3c(c1)OCCO3)C2", "note": "[Compound 138]", "IL-1β % inhibition": "++++ (compound exhibited 75% or greater inhibition at 0.3 μM)"},
      {"smiles": "CC(C)(C(=O)Nc1ncnc2c1CCN(S(=O)(=O)c1ccc(F)c(F)c1)C2)C12CC3CC(CC(C3)C1)C2", "note": "[Compound 355]", "IL-1β % inhibition": "+ (compound exhibited 0-25% inhibition at 0.3 μM)"},
      {"smiles": "COc1ccc(CN2CCc3c(ncnc3NC(=O)CC34CC5CC(CC(C5)C3)C4)C2)c(OC)c1", "note": "[Compound 30]", "IL-1β % inhibition": "++++ (compound exhibited 75% or greater inhibition at 0.3 μM)"},
      {"smiles": "COc1ccc(C(=O)N2CCc3c(ncnc3NC(=O)CC34CC5CC(CC(C5)C3)C4)C2)cc1", "note": "[Compound 234]", "IL-1β % inhibition": "++ (compound exhibited 25-50% inhibition at 0.3 μM)"},
      {"smiles": "O=C(CC12CC3CC(CC(C3)C1)C2)Nc1ncnc2c1CCN(C(=O)c1ccccc1C(F)(F)F)C2", "note": "[Compound 270]", "IL-1β % inhibition": "+ (compound exhibited 0-25% inhibition at 0.3 μM)"},
      {"smiles": "CCCCc1nc(CN2CCc3c(ncnc3NC(=O)CC34CC5CC(CC(C5)C3)C4)C2)c[nH]1", "note": "[Compound 80]", "IL-1β % inhibition": "++ (compound exhibited 25-50% inhibition at 0.3 μM)"},
      {"smiles": "O=C(CC12CC3CC(CC(C3)C1)C2)Nc1ncnc2c1CCN(C(=O)CC1CCCC1)C2", "note": "[Compound 263]", "IL-1β % inhibition": "++++ (compound exhibited 75% or greater inhibition at 0.3 μM)"},
      {"smiles": "O=C(CC12CC3CC(CC(C3)C1)C2)Nc1ncnc2c1CCN(S(=O)(=O)Cc1cccc(C(F)(F)F)c1)C2", "note": "[Compound 187]", "IL-1β % inhibition": "++++ (compound exhibited 75% or greater inhibition at 0.3 μM)"},
      {"smiles": "O=C(CC1CCCCCC1)Nc1ncnc2c1CCN(Cc1c[nH]cn1)C2", "note": "[Compound 126]", "IL-1β % inhibition": "+ (compound exhibited 0-25% inhibition at 0.3 μM)"},
      {"smiles": "N#Cc1cccc(C(=O)N2CCc3c(ncnc3NC(=O)CC34CC5CC(CC(C5)C3)C4)C2)c1", "note": "[Compound 242]", "IL-1β % inhibition": "+++ (compound exhibited 50-75% inhibition at 0.3 μM)"},
      {"smiles": "CC1(C)CCCC(O)(CNC(=O)c2ncnc3c2CCN(Cc2ccccc2)C3)C1", "note": "(stereo not shown) [Compound 59]", "IL-1β % inhibition": "+ (compound exhibited 0-25% inhibition at 0.3 μM)"},
      {"smiles": "COc1ccccc1CCC(=O)Nc1ncnc2c1CCN(Cc1ccncc1)C2", "note": "[Compound 133]", "IL-1β % inhibition": "+ (compound exhibited 0-25% inhibition at 0.3 μM)"},
      {"smiles": "Cc1nn(C)c(Cl)c1S(=O)(=O)N1CCc2c(ncnc2NC(=O)CC23CC4CC(CC(C4)C2)C3)C1", "note": "[Compound 158]", "IL-1β % inhibition": "+ (compound exhibited 0-25% inhibition at 0.3 μM)"},
      {"smiles": "COc1cccc(CN2CCc3c(ncnc3NC(=O)CC34CC5CC(CC(C5)C3)C4)C2)c1", "note": "[Compound 35]", "IL-1β % inhibition": "+++ (compound exhibited 50-75% inhibition at 0.3 μM)"}
    ]},
    {"test_system": "IL-1β release from THP-1 cells", "test": "IL-1β Release Assay (Alternate Method), THP-1 cells", "type": "cell-based, human", "conditions": "at 0.3 μM; THP-1 cells, BzATP-stimulated", "how_it_was_run": "as §1", "values": [
      {"smiles": "O=C(COc1ccccc1)N1CCc2c(ncnc2NC(=O)C23CC4CC(CC(C4)C2)C3)C1", "note": "[Compound 421]", "IL-1β % inhibition": "+ (compound exhibited 0-25% inhibition at 0.3 μM)"},
      {"smiles": "COc1ccc(C(=O)N2CCc3c(ncnc3NC(=O)C34CC5CC(CC(C5)C3)C4)C2)cc1OC", "note": "[Compound 476]", "IL-1β % inhibition": "++ (compound exhibited 25-50% inhibition at 0.3 μM)"},
      {"smiles": "O=C(Nc1ncnc2c1CCN(S(=O)(=O)c1ccc(Oc3ccccn3)cc1)C2)C12CC3CC(CC(C3)C1)C2", "note": "[Compound 506]", "IL-1β % inhibition": "++++ (compound exhibited 75% or greater inhibition at 0.3 μM)"},
      {"smiles": "COc1cc(CN2CCc3c(ncnc3NC(=O)C34CC5CC(CC(C5)C3)C4)C2)cc(OC)c1", "note": "[Compound 633]", "IL-1β % inhibition": "+ (compound exhibited 0-25% inhibition at 0.3 μM)"},
      {"smiles": "COc1ccc(OC)c(CN2CCc3c(ncnc3NC(=O)C34CC5CC(CC(C5)C3)C4)C2)c1", "note": "[Compound 631]", "IL-1β % inhibition": "+ (compound exhibited 0-25% inhibition at 0.3 μM)"},
      {"smiles": "O=C(c1ccccc1F)N1CCc2c(ncnc2NC(=O)C23CC4CC(CC(C4)C2)C3)C1", "note": "[Compound 452]", "IL-1β % inhibition": "++ (compound exhibited 25-50% inhibition at 0.3 μM)"},
      {"smiles": "O=C(c1ccc2ccccc2c1)N1CCc2c(ncnc2NC(=O)C23CC4CC(CC(C4)C2)C3)C1", "note": "[Compound 460]", "IL-1β % inhibition": "+ (compound exhibited 0-25% inhibition at 0.3 μM)"},
      {"smiles": "O=C(Nc1ncnc2c1CCN(S(=O)(=O)c1ccccc1OC(F)(F)F)C2)C12CC3CC(CC(C3)C1)C2", "note": "[Compound 532]", "IL-1β % inhibition": "+ (compound exhibited 0-25% inhibition at 0.3 μM)"}
    ]}
  ]
}
